Consider two compounds from US9115145B2, “Tocotrienol derivatives and associated methods” (FIRST TECH INTERNATIONAL LIMITED, priority 2011, dated 2015).

Experiment [1] deals with +SA mammary epithelial cells. The experiment is described as follows: MTT assay of +SA cells (antiproliferative activity). In kind it is cell-based, mouse. To be noted: 24 hours treatment, read-out: IC50 antiproliferative activity against +SA mammary epithelial cells. In outline:
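Mouse +SA mammary adenocarcinoma cells in serum-free DMEM/F12 were grown 3 days, then treated 24 h with BSA-conjugated compounds (0–40 μM; DMSO <0.1%). Viable cell number came from MTT (570 nm) against a cell standard curve. IC50 was derived by linear regression.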

For experiment [2], the system named is MCF7 human breast cancer cell line. The experiment is described as follows: MTT assay of MCF7 cells. In kind it is cell-based. To be noted: media containing 1% fetal bovine serum. As to the method: MDA-MB-231 and MCF7 cells were plated at a density of 8×10^3 cells/well and 10^4 cells/well in 96-well culture plates, respectively. The compounds were fed in serum free media containing 5% and 1% fetal bovine serum for MDA-MB-231 and MCF7 cells, respectively.

Experiment [3] relates to 60 human tumor cell lines. Briefly: NCI in vitro screening against 60 human cell lines, single concentration. It counts as cell-based. To be noted: 10 μM dose; negative values indicate cytotoxicity. As to the method: Compounds selected from Compounds 3-44 were provided to the National Cancer Institute for in vitro screening against 60-human cell lines for their ability to inhibit the growth of tumor cells in a full panel representing nine different organs (blood, lung, colon, CNS, skin, ovary, kidney, prostate, and breast). The compounds were tested at a single concentration of 10 μM, and the percentages of growth inhibitions over the sixty tested cell lines were determined. Compounds showing the highest activity were chosen for secondary assays using five different compound concentrations.
The human tumor cell lines of the cancer screening panel were grown in RPMI 1640 medium containing 5% fetal bovine serum and 2 mM L-glutamine. For a typical screening experiment, cells are inoculated into 96 well microtiter plates in 100 μL at plating densities ranging from 5000 to 40,000 cells/well depending on the doubling time of individual cell lines. After cell inoculation, the microtiter plates are incubated at 37° C., 5% CO2, 95% air and 100% relative humidity for 24 hours prior to addition of experimental drugs. After 24 hours, two plates of each cell line are fixed in situ with Trichloroacetic acid (“TCA”), to represent a measurement of the cell population for each cell line at the time of drug addition. Experimental drugs are solubilized in dimethyl sulfoxide at 400-fold the desired final maximum test concentration and stored frozen prior to use. At the time of drug addition, an aliquot of frozen concentrate is thawed and diluted to twice the desired final maximum test concentration with complete medium containing 50 ng/mL gentamicin. An aliquot of 100 μL of this drug dilution is added to the appropriate microtiter wells already containing 100 μL of medium, resulting in the required final drug concentrations. Following drug addition, the plates are incubated for an additional 48 h at 37° C., 5% CO2, 95% air, and 100% relative humidity. For adherent cells, the assay is terminated by the addition of cold TCA. Cells are fixed in situ by the gentle addition of 50 μL of cold 50% (w/v) TCA (final concentration, 10% TCA) and incubated for 60 min at 4° C. The supernatant is discarded, and the plates are washed five times with tap water and air dried. Sulforhodamine B (SRB) solution (100 μL) at 0.4% (w/v) in 1% acetic acid is added to each well, and plates are incubated for 10 min at room temperature. After staining, unbound dye is removed by washing five times with 1% acetic acid and the plates are air dried. Bound stain is subsequently solubilized with 10 mM trizma base, and the absorbance is read on an automated plate reader at a wavelength of 515 nm. For suspension cells, the methodology is the same except that the assay is terminated by fixing settled cells at the bottom of the wells by gently adding 50 μL of 80% TCA (final concentration, 16% TCA). FIGS. 37-74 indicate the growth inhibition effects of selected Compounds against a variety of cell lines based on the above described testing configuration. FIGS. 37-74 present the Growth percent for a given compound against the cell lines and both values and a bar chart of the difference between the mean growth percent and the growth percent which is an indication of the selectivity of the compound for that particular cell line.

Where two headings read alike, the source gives them in different places.

Turning to `CC(C)=CCC/C(C)=C/CC/C(C)=C/CC[C@]1(C)CCc2cc(O)c(C)c(C)c2O1` [Compound 1, γ-tocotrienol, reference compound], the half-inhibitory concentration (IC50) in experiment [1] was determined as 4 µM; in experiment [2], 7.1 µM. The “mean percent growth across all 60 cell lines (mean 60)” value in experiment [3] is “inactive”.
Turning to `COc1ccc(CCNCc2c(O)c(C)c(C)c3c2CC[C@@](C)(CC/C=C(\C)CC/C=C(\C)CCC=C(C)C)O3)cc1OC` [Compound 30, (R)-5-((3,4-dimethoxyphenethylamino)methyl)-2,7,8-trimethyl-2-((3E,7E)-4,8,12-trimethyltrideca-3,7,11-trienyl)chroman-6-ol], the IC50 in experiment [1] (Mus musculus, +SA cell) stood at 3.19 µM. The “mean percent growth across all 60 cell lines (mean 60)” value in experiment [3] was “comparable to the activity of Compound 1”.
